Experimental data: patent US12221432B2, “Estrogen receptor antagonist” (CHIA TAI TIANQING PHARMACEUTICAL GROUP CO., LTD., priority 2018, dated 2025)
Counter-ions that a name gives are not always drawn.

How the values were obtained:
[1] = Metabolic stability in liver microsome (CD-1 mouse); assay type: in vitro ADME, CD-1 mice
Procedure: Objective: To determine the metabolic stability of test compounds in the liver microsomes of humans, CD-1 5 mice and SD rats (Corning Co., Ltd., Miaotong Biological Technology Co., Ltd., Miaotong Biological Technology Co., Ltd.).
Procedures: Firstly, eight 96-well plates were prepared, and named T0, T5, T10, T20, T30, T60, NCF60 and BLANK; except for BLANK (added with buffer at 10 μL/well), the plates were added with the solution of compounds at 10 μL/well. Prepared microsomes were added to the 7 plates (80 μL/well), except for the T0 10 plate. The NCF60 plate was added with the buffer at 10 μL/well, and incubated in a 37° C. water bath, and timing was started:
Prepared NADPH cofactor working solution was aliquoted into a 96-well shallow-well plate serving as a loading slot. Each plates was added with the solution to at 10 μL/well by a 96-channel pipette and incubated in a 37° C. water bath to start the reaction:
At each time point, termination solution (cold acetonitrile containing 100 ng/mL Tolbutamide and 100 ng/mL Labetalol as internal standard) was added at 300 μL/well to stop the reaction, and the mixture was mixed well; the mixture was centrifuged at 4000 rpm for 20 minutes to precipitate the protein; the supernatant was transferred at 100 μL/well to a new 96-well plate containing 300 μL/well of HPLC water with a 96-channel pipette, and the mixture was mixed well. […]

[2] = biological target: T1, CYP2C9 (Homo sapiens, UniProt P11712); assay: Cytochrome P450 isoenzyme inhibition, CYP2C9; assay type: in vitro ADME; details: human liver microsomes; read-out: CYP enzyme inhibition (IC50) 2C9
T1 construct: tissue Corning Co., Ltd; host or cells: human liver microsomes
From the text: (§1) Experimental objective: To determine the inhibitory effect of the test compound on the activity of human liver microsomal cytochrome P450 isoenzymes (CYP1A2, CYP2C9, CYP2C19, CYP2D6 and CYP3A4; Corning Co., Ltd.). […]

[3] = biological target: T2, CYP2C19 (Homo sapiens, UniProt P33261); assay: Cytochrome P450 isoenzyme inhibition, CYP2C19; assay type: in vitro ADME; details: human liver microsomes; read-out: CYP enzyme inhibition (IC50) 2C19
T2 construct: tissue Corning Co., Ltd; host or cells: human liver microsomes
From the text: as §1

[4] = Pharmacokinetics study in mice (cassette); assay type: in vivo; details: female, Balb/c, plasma, mouse cassette PK
From the text: Objective: To determine the drug concentration in the plasma of the mice at different times after intravenous and oral administration of the test compounds by LC/MS/MS using female Balb/c mice as the test animals. To investigate the pharmacokinetic performance of the test compounds in mice and to evaluate the pharmacokinetic characteristics.
Test animals: 4 healthy female Balb/c mice were divided into 2 groups according to the principle of similar weight, 2 in the IV group and 2 in the PO group. The animals were purchased from Shanghai Lingchang Biotechnology Co., Ltd.
IV group: Appropriate amounts of compounds were weighed respectively, prepared into 2 mg/mL solutions, then mixed to give a 0.5 mg/mL solution, which was stirred and ultrasonicated until a clear state. The vehicle was 15% HP-b-CD.
PO group: An appropriate amount of the IV group solution was taken and diluted to 0.4 mg/mL with 15% HP-b-CD.
Administration: After fasting overnight, the IV group was administered intravenously, and the dose of the test compound was 1 mg/kg; the PO group was administered intragastrically, and the dose of the test compound was 2 mg/kg.
Procedures: For IV group, 30 μL of blood was collected from the saphenous vein of the female Balb/c mice at 0.0833, 0.25, 0.5, 1, 2, 4, 8, and 24 hours post-dose, and placed in a commercial anticoagulant tube with EDTA-K2 added in advance. For PO group, 30 μL of blood was collected from the saphenous vein of the female Balb/c mice at 0.25, 0.5, 1, 2, 4, 8, 12 and 24 hours post-dose, and placed in a commercial anticoagulant tube with EDTA-K2 added in advance. The blood samples were centrifuged (3,200 g, 4° C., 10 minutes) to give plasma samples, which was transferred to a pre-cooled centrifuge tube, frozen in dry ice, and stored in an ultra-low temperature freezer at −60° C. or lower until the LC-MS/MS analysis. The animals were given free access to food 4 hours after the administration. LC/MS/MS method was used to determine the content of the test compounds in the plasma of mice after intravenous and oral administration. The linear range of the method is 2.00-2000 nM.

T1 sequence (P11712 whole entry): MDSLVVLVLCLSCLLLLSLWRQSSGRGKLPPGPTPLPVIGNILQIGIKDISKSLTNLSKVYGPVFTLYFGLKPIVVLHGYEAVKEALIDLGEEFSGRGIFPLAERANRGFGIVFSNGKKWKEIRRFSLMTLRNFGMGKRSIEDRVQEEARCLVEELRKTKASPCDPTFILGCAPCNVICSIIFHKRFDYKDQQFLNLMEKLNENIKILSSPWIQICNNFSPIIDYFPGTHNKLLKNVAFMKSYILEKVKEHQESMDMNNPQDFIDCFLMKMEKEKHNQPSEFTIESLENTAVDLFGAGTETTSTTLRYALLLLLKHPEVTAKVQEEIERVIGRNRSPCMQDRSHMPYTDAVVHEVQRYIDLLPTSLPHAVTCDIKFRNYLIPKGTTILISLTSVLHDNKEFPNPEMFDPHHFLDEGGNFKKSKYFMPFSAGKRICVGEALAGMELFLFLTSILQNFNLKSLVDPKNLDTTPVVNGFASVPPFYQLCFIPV
T2 sequence (P33261 whole entry): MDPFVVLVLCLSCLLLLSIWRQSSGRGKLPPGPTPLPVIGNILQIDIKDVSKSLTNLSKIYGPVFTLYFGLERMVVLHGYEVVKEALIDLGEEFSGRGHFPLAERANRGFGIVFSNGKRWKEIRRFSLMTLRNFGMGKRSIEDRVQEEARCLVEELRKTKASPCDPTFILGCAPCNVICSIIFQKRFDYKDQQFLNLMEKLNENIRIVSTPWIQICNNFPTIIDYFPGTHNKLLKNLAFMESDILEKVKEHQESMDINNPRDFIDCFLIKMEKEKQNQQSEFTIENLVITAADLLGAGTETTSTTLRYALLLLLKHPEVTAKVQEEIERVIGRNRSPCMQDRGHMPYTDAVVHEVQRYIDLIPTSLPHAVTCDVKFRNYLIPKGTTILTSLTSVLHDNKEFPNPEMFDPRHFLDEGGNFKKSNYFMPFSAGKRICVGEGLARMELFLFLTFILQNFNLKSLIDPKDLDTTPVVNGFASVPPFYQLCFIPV

Stability in liver microsomes [1]: 43 | IC50 [2]: 8.4 µM | IC50 [3]: 3.9 µM | AUC(0-t) ([4]; iv, i.v. 1 mg/kg): 2.43 µM·h | clearance ([4]; iv, i.v. 1 mg/kg): 12.9 mL/min/kg | half-life ([4]; iv, i.v. 1 mg/kg): 3.37 h | Vd ([4]; iv, i.v. 1 mg/kg, read-out: Vdss): 3.46 L/kg | AUC(0-t) ([4]; po, p.o. 2 mg/kg): 1.27 µM·h | Cmax ([4]; po, p.o. 2 mg/kg): 224 nM | Tmax ([4]; po, p.o. 2 mg/kg): 0.25 h | bioavailability ([4]; po, p.o. 2 mg/kg): 26.1% | half-life ([4]; po, p.o. 2 mg/kg): 8.12 h
SMILES: CC/C(=C(/c1ccc(OCCNC/C=C/C(=O)N(C)C)nc1)c1[nH]c2ccccc2c1Cl)c1ccccc1 [Compound 3 monohydrochloride]
